In US8420655B2, “Benzimidazole inhibitors of leukotriene production” (Boehringer Ingelheim International GmbH, priority 2009, dated 2013) one finds IC50 data, which are given here for 29 molecules.

This test has as its target T1, recombinant human FLAP protein (Homo sapiens, UniProt P20292).
T1 construct: made in house; host or cells: Sf9 insect cells (membrane fraction, 100,000 x g pellet)
T1 sequence (P20292 1-161): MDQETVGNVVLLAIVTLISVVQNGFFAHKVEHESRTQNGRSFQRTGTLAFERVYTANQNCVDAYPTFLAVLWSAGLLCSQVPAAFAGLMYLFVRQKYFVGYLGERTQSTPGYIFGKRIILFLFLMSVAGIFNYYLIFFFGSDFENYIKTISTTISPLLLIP
The test is described as follows: FLAP binding assay, displacement of iodinated (125I) FLAP inhibitor, Scintillation Proximity Assay format. The conditions noted are these: [125I]L-691,831 probe, membrane protein from sf9 cells; read-out: hFLAP binding IC50. On the procedure:
Compounds are assessed for the ability to bind to FLAP in a binding assay that measures compound-specific displacement of an iodinated (^125I) FLAP inhibitor via a Scintillation Proximity Assay format (adapted from S. Charleson et al., Mol. Pharmacol., 1992, 41, 873-879).
Cell pellets produced from sf9 insect cells expressing recombinant human FLAP protein are resuspended in buffer A [15 mM Tris-HCl (pH 7.5), 2 mM MgCl2, 0.3 mM EDTA, 1 mM PMSF]. The cells are lysed with a Dounce homogenizer and the material is centrifuged at 10,000×g for 10 minutes. The supernatant is then collected and centrifuged at 100,000×g for 60 minutes. To prepare membrane protein for an assay, an aliquot of the 100,000×g pellet is resuspended in 1 ml of buffer A, Dounce homogenized, and finally subjected to polytron mixing (30 seconds). Membrane protein (25 μl, 5 μg) is mixed with WGA SPA beads (Amersham) and stirred for 1 h. To an assay plate (Perkin Elmer FlexiPlate) is added 25 μl of test compound prepared in Binding buffer [100 mM Tris (pH 7.5), 140 mM NaCl, 5% glycerol, 2 mM EDTA, 0.5 mM TCEP, 0.05% Tween 20], 25 μl of [^125I]L-691,831 (an iodinated analog of MK-591, Charleson et al. Mol. Pharmacol., 41, 873-879, 1992) and finally 50 μl of the bead/protein mixture. (final concentrations: beads, 200 μg/well; protein, 5 μg/well; [^125I] probe, 0 08 nM/well (17 nCi/well). The plates are shaken for 2 h before reading on a Microbeta plate reader. Non-specific binding is determined by the addition of 10 μM cold L-691,831 compound.

Each structure is given as a SMILES string.

Regarding `Cc1ccc(-c2nc(C)no2)c(-c2nc3cc(-c4cnc(N)nc4)ccc3n2C(C)(C)C)c1` [5-{1-tert-Butyl-2-[5-methyl-2-(3-methyl-1,2,4-oxadiazol-5-yl)-phenyl]-1H-benzimidazol-5-yl}-pyrimidin-2-ylamine], the IC50 (commonly the concentration that inhibits the measured activity by half) was 1.8 nM. The result for `Cc1nc(-c2ccccc2-c2nc3cc(-c4cnc(N)nc4)ccc3n2C(C)(C)C)n(C)n1` [5-{1-tert-Butyl-2-[2-(2,5-dimethyl-2H-1,2,4-triazol-3-yl)-phenyl]-1H-benzimidazol-5-yl}-pyrimidin-2-ylamine] reads 1.8 nM; that for `CCOCc1ccc(-n2cncn2)c(-c2nc3cc(-c4cnc(N)nc4)ccc3n2C(C)(C)C)c1` [5-[1-tert-Butyl-2-(5-ethoxymethyl-2-[1,2,4]triazol-1-yl-phenyl)-1H-benzoimidazol-5-yl]-pyrimidin-2-ylamine], 10 nM. The value for `CCNC(=O)c1ncn(-c2ccc(C#N)cc2-c2nc3cc(-c4cnc(N)nc4)ccc3n2C(C)(C)C)n1` [1-{2-[5-(2-Amino-pyrimidin-5-yl)-1-tert-butyl-1H-benzoimidazol-2-yl]-4-cyano-phenyl}-1H-[1,2,4]triazole-3-carboxylic acid ethylamide] was 29.5 nM. The value for `Cc1ccc(-n2cnc(C)n2)c(-c2nc3cc(-c4cnc(N)nc4)ccc3n2C(C)(C)C)c1` was 1.7 nM. On to `Cn1ncnc1-c1ccc(Cl)cc1-c1nc2cc(-c3cnc(N)nc3)ccc2n1C(C)(C)C` [5-{1-tert-Butyl-2-[5-chloro-2-(2-methyl-2H-1,2,4-triazol-3-yl)-phenyl]-1H-benzimidazol-5-yl}-pyrimidin-2-ylamine], for which the concentration for half-maximal inhibition (IC50) amounted to 1.2 nM. The value for `Cn1cc(-c2ccc(-n3cncn3)c(-c3nc4cc(-c5cnc(N)nc5)ccc4n3C(C)(C)C)c2)cn1` [5-{1-tert-Butyl-2-[5-(1-methyl-1H-pyrazol-4-yl)-2-[1,2,4]triazol-1-yl-phenyl]-1H-benzoimidazol-5-yl}-pyrimidin-2-ylamine] was 2.4 nM; that for `CC(C)(C)n1c(-c2ccc(Cl)cc2-n2cncn2)nc2cc(-c3cnc(N)nc3)ccc21` [5-[1-tert-Butyl-2-(4-chloro-2-1,2,4-triazol-1-yl-phenyl)-1H-benzimidazol-5-yl]-pyrimidin-2-ylamine] was 1.7 nM. The result for `COC(=O)c1ncn(-c2ccc(C#N)cc2-c2nc3cc(-c4cnc(N)nc4)ccc3n2C(C)(C)C)n1` [1-{2-[5-(2-Amino-pyrimidin-5-yl)-1-tert-butyl-1H-benzoimidazol-2-yl]-4-cyano-phenyl}-1H-[1,2,4]triazole-3-carboxylic acid methyl ester] reads 15.9 nM; that for `CC(C)(C)n1c(-c2cc(C#N)ccc2-n2cnc(-c3ccccc3Cl)n2)nc2cc(-c3cnc(N)nc3)ccc21` [3-[5-(2-Amino-pyrimidin-5-yl)-1-tert-butyl-1H-benzoimidazol-2-yl]-4-[3-(2-chloro-phenyl)-[1,2,4]triazol-1-yl]-benzonitrile], 4.4 nM. The result for `CCCCC/C(=C\C(=O)O)c1ccc(-n2cncn2)c(-c2nc3cc(-c4cnc(N)nc4)ccc3n2C(C)(C)C)c1` [(E)-3-{3-[5-(2-Amino-pyrimidin-5-yl)-1-tert-butyl-1H-benzoimidazol-2-yl]-4-[1,2,4]triazol-1-yl-phenyl}-oct-2-enoic acid] reads 6 nM; that for `CNC(=O)c1ccc(-n2cncn2)c(-c2nc3cc(-c4cnc(N)nc4)ccc3n2C(C)(C)C)c1` [3-[5-(2-Amino-pyrimidin-5-yl)-1-tert-butyl-1H-benzoimidazol-2-yl]-N-methyl-4-[1,2,4]triazol-1-yl-benzamide], 20 nM.

As for `CC(C)(C)n1c(-c2ccccc2-c2ccno2)nc2cc(-c3cnc(N)nc3)ccc21` [5-[1-tert-butyl-2-(2-isoxazol-5-yl-phenyl)-1H-benzoimidazol-5-yl]-pyrimidin-2-ylamine], the 50% inhibitory concentration (IC50) is 2.4 nM. The value for `CC(C)(C)n1c(-c2cc(-c3nn[nH]n3)ccc2-n2cncn2)nc2cc(-c3cnc(N)nc3)ccc21` [5-{1-tert-Butyl-2-[5-(2H-tetrazol-5-yl)-2-[1,2,4]triazol-1-yl-phenyl]-1H-benzoimidazol-5-yl}-pyrimidin-2-ylamine] was 4.6 nM; that for `Cc1ccn(-c2ccc(Cl)cc2-c2nc3cc(-c4cnc(N)nc4)ccc3n2C(C)(C)C)n1` [5-{1-tert-Butyl-2-[5-chloro-2-(3-methyl-pyrazol-1-yl)-phenyl]-1H-benzimidazol-5-yl}-pyrimidin-2-ylamine] was 0.71 nM; that for `CC(C)NC(=O)Oc1ccc(-n2cncn2)c(-c2nc3cc(-c4cnc(N)nc4)ccc3n2C(C)(C)C)c1` [Isopropyl-carbamic acid 3-[5-(2-amino-pyrimidin-5-yl)-1-tert-butyl-1H-benzimidazol-2-yl]-4-1,2,4-triazol-1-yl-phenyl ester] was 1.5 nM. The value for `CC(C)(C)n1c(-c2cc(C#N)ccc2-n2cnc(Br)n2)nc2cc(-c3cnc(N)nc3)ccc21` [3-[5-(2-Amino-pyrimidin-5-yl)-1-tert-butyl-1H-benzoimidazol-2-yl]-4-(3-bromo-[1,2,4]triazol-1-yl)-benzonitrile] was 0.83 nM. As for `CCc1ccc(-n2cncn2)c(-c2nc3cc(-c4cnc(N)nc4)ccc3n2C(C)(C)C)c1` [5-[1-tert-Butyl-2-(5-ethyl-2-1,2,4-triazol-1-yl-phenyl)-1H-benzimidazol-5-yl]-pyrimidin-2-ylamine], the IC50 was found to be 2.4 nM. The result for `CC(C)(C)n1c(-c2cc(CO)ccc2-n2cncn2)nc2cc(-c3cnc(N)nc3)ccc21` [{3-[5-(2-Amino-pyrimidin-5-yl)-1-tert-butyl-1H-benzoimidazol-2-yl]-4-[1,2,4]triazol-1-yl-phenyl}-methanol] reads 10.4 nM; that for `CC(C)(C)n1c(-c2cc(Cl)ccc2-n2cncn2)nc2cc(-c3cnc(N)nc3)ccc21` [5-[1-tert-Butyl-2-(5-chloro-2-1,2,4-triazol-1-yl-phenyl)-1H-benzimidazol-5-yl]-pyrimidin-2-ylamine], 3 nM; that for `Cc1c(-c2ccc(-n3cncn3)c(-c3nc4cc(-c5cnc(N)nc5)ccc4n3C(C)(C)C)c2)cnn1C` [5-{1-tert-Butyl-2-[5-(1,5-dimethyl-1H-pyrazol-4-yl)-2-[1,2,4]triazol-1-yl-phenyl]-1H-benzoimidazol-5-yl}-pyrimidin-2-ylamine], 4 nM. For the molecule `CC(C)(C)n1c(-c2cc(C(F)(F)F)ccc2-n2cncn2)nc2cc(-c3cnc(N)nc3)ccc21`, the IC50 is 2.4 nM. The value for `COc1ccc(-n2cnc(C)n2)c(-c2nc3cc(-c4cnc(N)nc4)ccc3n2C(C)(C)C)c1` [5-{1-tert-Butyl-2-[5-methoxy-2-(3-methyl-1,2,4-triazol-1-yl)-phenyl]-1H-benzimidazol-5-yl}-pyrimidin-2-ylamine] was 2.2 nM; that for `CC(C)(C)n1c(-c2cc(F)ccc2-n2cccn2)nc2cc(-c3cnc(N)nc3)ccc21` [5-[1-tert-Butyl-2-(5-fluoro-2-pyrazol-1-yl-phenyl)-1H-benzimidazol-5-yl]-pyrimidin-2-ylamine] was 1.7 nM. The value for `CC(C)(C)n1c(-c2ccc(OC3CCOC3)cc2-n2cncn2)nc2cc(-c3cnc(N)nc3)ccc21` (centres unmarked) [5-{1-tert-Butyl-2-[4-(tetrahydro-furan-3-yloxy)-2-1,2,4-triazol-1-yl-phenyl]-1H-benzimidazol-5-yl}-pyrimidin-2-ylamine] was 10.6 nM; that for `Cc1ncnn1-c1ccccc1-c1nc2cc(-c3cnc(N)nc3)ccc2n1C(C)(C)C` [5-{1-tert-Butyl-2-[2-(5-methyl-1,2,4-triazol-1-yl)-phenyl]-1H-benzimidazol-5-yl}-pyrimidin-2-ylamine] was 3.3 nM. The value for `COC(=O)C(C)(C)Oc1ccc(-c2nc3cc(-c4cnc(N)nc4)ccc3n2C(C)(C)C)c(-n2cncn2)c1` [2-{4-[5-(2-Amino-pyrimidin-5-yl)-1-tert-butyl-1H-benzoimidazol-2-yl]-3-[1,2,4]triazol-1-yl-phenoxy}-2-methyl-propionic acid methyl ester] was 7.2 nM; that for `Cc1ncn(-c2ccc(Cl)cc2-c2nc3cc(-c4cnc(N)nc4)ccc3n2C(C)(C)C)n1` [5-{1-tert-Butyl-2-[5-chloro-2-(3-methyl-1,2,4-triazol-1-yl)-phenyl]-1H-benzimidazol-5-yl}-pyrimidin-2-ylamine] was 1.4 nM. Take `Cn1ncnc1-c1ccc(F)cc1-c1nc2cc(-c3cnc(N)nc3)ccc2n1C(C)(C)C` [5-{1-tert-Butyl-2-[5-fluoro-2-(2-methyl-2H-1,2,4-triazol-3-yl)-phenyl]-1H-benzimidazol-5-yl}-pyrimidin-2-ylamine]: the IC50 is 1.6 nM.
